Source: article PMC12592319, “Predicting Food Effect On Oral Drug Absorption For Solubility-Epithelial Membrane Permeation-Limited Cases With Bile Micelle Solubilization” (Pharmaceutical Research, 2025)
≈ marks a conversion by molar mass, not a printed value. Like-named read-outs stand apart in the source and are kept apart here.

Columns and labels:
[1] = pKa measurement (SiriusT3, UV-metric/pH-metric titration); assay type: physicochemical; settings: acidic pKa; ionic strength 0.168 mol/L, 37°C; read-out: pKa (A)
Method: The pKa measurements were performed using a SiriusT3 automatic titrator, with a spectrometric (UV-metric) or titration (pH-metric) method. The UV-metric method used a fiber optic dip probe, a deuterium lamp UV light source, and a photodiode array detector to capture the absorption spectra of a sample solution over the course of three titrations, across the pH range 2.0–12.0. […] Titrations were carried out under a controlled temperature of 37 ± 0.2°C.
SiriusT3 software v2.0 was used to apply principal component analysis to the spectral data to resolve the molar absorptivity spectra of each sample species and determine the psKa values of the compounds in the co-solvent. The pKa values under aqueous conditions were calculated from the co-solvent data using the Yasuda-Shedlovsky extrapolation method.
Additional potentiometric titrations were performed for each drug, which confirmed that no additional non-UV active pKas were present within the titration pH range.

[2] = Octanol-water partition/distribution coefficient (logPoct, logDoct); assay type: physicochemical; settings: calculated from logPoct and pKa using the Henderson-Hasselbalch equation
Text: Table II Physicochemical Properties and Caco-2 Permeability of Model Drugs | column: logDoct,pH 6.5^c

[3] = Equilibrium solubility measurement (shake-flask) in blank FaSSIF, FaSSIF, FeSSIF; assay type: physicochemical; settings: for solubility at 72 h: thermodynamic from solid, pH 6.5, 37°C, mean ± S.D., N = 3; for Ratio (fed/fasted) Sdissolv: FeSSIF/FaSSIF, corresponds to Fafed/Fafasted predicted by Eq. (18)
Method: A shake-flask method was used for equilibrium solubility measurement. Each drug (10 mg) was added to the 15 mL test tube. Blank FaSSIF (28.7 mM phosphate buffer, pH 6.5 adjusted by NaOH), FaSSIF (3 mM TC, 0.75 mM EL in blank FaSSIF), or FeSSIF (15 mM TC, 3.75 mM EL in blank FaSSIF) was added. The test tube was placed horizontally in a reciprocal shaker. After shaking for 72 h at 37°C (at 90 rpm, motion width: 2.5 cm), the sample was filtered (hydrophilic PVDF, φ = 4.0 mm, pore size: 0.22 µm, Merck). The first few droplets were discarded to avoid filter adsorption. The concentration of each drug was measured by UV absorbance. […] After measuring the final pH (9615S-10D Standard ToupH electrode (HORIBA Advanced Techno Co., Ltd., Kyoto, Japan)), the residual particles were collected by vacuum filtration and analyzed by powder X-ray diffraction (PXRD) (Supplemental Information Figure S1).

[4] = cited from earlier work
Caco-2 = system: Caco-2; parameters: method as in PMID 9795088, PMID 10767597, PMID 15032311; settings: cited from earlier work
[5] = clinical AUC ratio fed/fasted, humans; cited from earlier work
[6] = assumed to be the same as Caco-2 Papp, cited from earlier work
[7] = μFLUX dissolution-permeation flux experiment; settings: for kdiss: calculated from the initial dissolution rate in μFLUX; for Ratio (fed/fasted) CD,final / Ratio (fed/fasted) JμFLUX: FeSSIF/FaSSIF, μFLUX dose 1/10 of the clinical dose; for fraction unbound: pH 6.5, fu; for fraction unbound / fu: calculated by Eq. (9) (Sdissolv,u/Sdissolv); for CD,final: measured after filtration, 1/10 of clinical dose, mean ± S.D., N = 3; for Pep,u,μFLUX: Peff,μFLUX/fu; for JμFLUX: average of 90 to 120 min (pranlukast 210 to 240 min); for Peff,μFLUX: calculated based on CD,final; for Time after which CD reached a plateau: donor solution
[8] = FaRLS diagnosis by Fa equation and Peff equation (Table S3, dose number); settings: for Dose number, Fasted / Dose number, Fed: clinical dose; for Dose number, Fasted: Sdissolv in FaSSIF; for Dose number, Fed: Sdissolv in FeSSIF; for fraction unbound: human, bile micelles in FaSSIF, pH 6.5
[9] = parameters: method as in PMID 20307655, PMID 19465123, PMID 17828749, PMID 23994640; settings: pH 6.5; cited from earlier work
[10] = parameters: method as in PMID 31863733; settings: previous prediction; cited from earlier work
[11] = FaSSIF, read-out: Solubility, FaSSIF
[12] = FeSSIF, read-out: Solubility, FeSSIF
[13] = blank FaSSIF, read-out: Solubility, Blank FaSSIF
[14] = bile micelles in FaSSIF, FaSSIF
[15] = bile micelles in FeSSIF, FeSSIF

Row | SMILES | logDoct,pH 6.5 [2] | Ratio (fed/fasted) Sdissolv [3] | Ratio (fed/fasted) CD,final [7] | Ratio (fed/fasted) JμFLUX [7] | fraction unbound [7, 14] | fraction unbound [7, 15] | CD,final ([7]; donor FaSSIF pH 6.5) [µg/mL] | Pep,u,μFLUX ([7]; donor FaSSIF) | JμFLUX ([7]; donor FaSSIF) | Peff,μFLUX ([7]; donor FaSSIF) | CD,final ([7]; donor FeSSIF pH 6.5) | Pep,u,μFLUX ([7]; donor FeSSIF) | JμFLUX ([7]; donor FeSSIF) | Peff,μFLUX ([7]; donor FeSSIF) | Time after which CD reached a plateau [7] [min] | Dose number, Fasted [8] | Dose number, Fed [8] | logPoct [4] | Caco-2 Papp (Caco-2) | Ratio (fed/fasted) AUCr [5] | further results
1 | COc1ccccc1Oc1c(NS(=O)(=O)c2ccc(C(C)(C)C)cc2)nc(-c2ncccn2)nc1OCCO [Bosentan] | 2.2 | 2.1 | 1.9 | 0.91 | 0.73 | 0.34 | 49 ± 0 | 18 ± 2 10^–5 cm/s | 6.7 ± 0.8 10–^3 μg/cm^2/s | 14 ± 2 10^–5 cm/s | 95 ± 0 µg/mL | 19 ± 1 10^–5 cm/s | 6.1 ± 0.2 10–^3 μg/cm^2/s | 6.4 ± 0.2 10^–5 cm/s | 20 | 23 | 9 | 3.8 | 1 [52] 10^–6 cm/s | 1.1 | pKa [1]: 4.87; solubility at 72 h [3, 11]: 41 ± 1 µg/mL (≈ 74.3 µM); solubility at 72 h [3, 12]: 87 ± 1 µg/mL (≈ 158 µM); solubility at 72 h [3, 13]: 30 ± 1 µg/mL (≈ 54.4 µM); Pep,u ([6]; Fasted): 1 10^-6 cm/s; Pep,u ([6]; Fed): 1 10^-6 cm/s; kdiss ([7]; Fasted): 0.0004708 s⁻¹; kdiss ([7]; Fed): 0.0007219 s⁻¹; Dn ([8]; Fasted): 5.9; Do ([8]; Fasted): 23; Pep ([8]; Fasted): 0.73 10^-6 cm/s; Pep' ([8]; Fasted): 7.3 10^-6 cm/s; Dn ([8]; Fed): 9.1; Do ([8]; Fed): 9.2; Pep ([8]; Fed): 0.34 10^-6 cm/s; Pep' ([8]; Fed): 3.4 10^-6 cm/s; fraction unbound [8]: 0.73
2 | Cc1ccc(-c2cc(C(F)(F)F)nn2-c2ccc(S(N)(=O)=O)cc2)cc1 [Celecoxib] | 3.5 | 2.2 | 1.7 | 1.7 | 0.069 | – | 37 ± 1 | – | 6.7 ± 0.4 10–^3 μg/cm^2/s | 18 ± 2 10^–5 cm/s | 62 ± 1 µg/mL | – | 11 ± 1 10–^3 μg/cm^2/s | 18 ± 1 10^–5 cm/s | 20 | 67 | 25 | 3.5 | 18 [56] 10^–6 cm/s | 1.6 | Solubility, Blank FaSSIF [9]: 3.2 µg/mL (≈ 8.39 µM); Solubility, FaSSIF [9]: 46.2 µg/mL (≈ 121 µM); Solubility, FeSSIF [9]: 103 µg/mL (≈ 270 µM); Food effect predicted by the GUT framework [10]: 2.3; fu ([7]; FeSSIF): 0.031
3 | O=C(Nc1cccc2c(=O)cc(-c3nnn[nH]3)oc12)c1ccc(OCCCCc2ccccc2)cc1 [Pranlukast] | – | 9.1 | 20 | 2.4 | 0.038 | 0.004 | 56 ± 1 | 10 ± 2 10^–5 cm/s | 0.20 ± 0.05 10–^3 μg/cm^2/s | 0.37 ± 0.09 10^–5 cm/s | 1100 ± 0^ h μg/mL | 10 ± 4 10^–5 cm/s | 0.47 ± 0.16 10–^3 μg/cm^2/s | 0.043 ± 0.015 10^–5 cm/s | – | 20 | 2 | – | 0.08 [54] 10^–6 cm/s | 1.3 | Solubility, Blank FaSSIF [9]: 3 µg/mL (≈ 6.23 µM); Solubility, FaSSIF [9]: 88 µg/mL (≈ 183 µM); Solubility, FeSSIF [9]: 800 µg/mL (≈ 1660 µM); Bound to bile micelles ([7]; FeSSIF): 99.6%; fu ([7]; FeSSIF): 0.0041

Second part, led by results:

Row | logDoct,pH 6.5 [2] | Ratio (fed/fasted) Sdissolv [3] | Ratio (fed/fasted) CD,final [7] | Ratio (fed/fasted) JμFLUX [7] | fraction unbound [7, 14] | fraction unbound [7, 15] | CD,final ([7]; donor FaSSIF pH 6.5) [µg/mL] | Pep,u,μFLUX ([7]; donor FaSSIF) | JμFLUX ([7]; donor FaSSIF) | Peff,μFLUX ([7]; donor FaSSIF) | CD,final ([7]; donor FeSSIF pH 6.5) | Pep,u,μFLUX ([7]; donor FeSSIF) | JμFLUX ([7]; donor FeSSIF) | Peff,μFLUX ([7]; donor FeSSIF) | Time after which CD reached a plateau [7] [min] | Dose number, Fasted [8] | Dose number, Fed [8] | SMILES | logPoct [4] | Caco-2 Papp (Caco-2) | Ratio (fed/fasted) AUCr [5] | further results
4 | 4.5 | – | – | – | 0.011 | 0.0043 | – | – | – | – | – | – | – | – | – | 43 | 14 | C#C[C@]1(O)CC[C@H]2[C@@H]3CCC4=Cc5oncc5C[C@]4(C)[C@H]3CC[C@@]21C [Danazol] | 4.5 | – | – | –
5 | 2.3 | 2.3 | 3.1 | 0.81 | 0.6 | 0.26 | 72 ± 0 | 17 ± 2 10^–5 cm/s | 7.4 ± 0.7 10–^3 μg/cm^2/s | 10 ± 1 10^–5 cm/s | 220 ± 0^ h μg/mL | 10 ± 1 10^–5 cm/s | 6.0 ± 0.7 10–^3 μg/cm^2/s | 2.7 ± 0.3 10^–5 cm/s | 20 | 20 | 7 | CCc1c(Cl)c(O)c(Cl)c(O)c1C(=O)O[C@H]1[C@H](O)[C@H](OC)[C@H](OC/C2=C\C=C\C[C@H](O)/C(C)=C/[C@H](CC)[C@@H](O[C@@H]3OC(C)(C)[C@@H](OC(=O)C(C)C)[C@H](O)[C@@H]3O)/C(C)=C/C(C)=C/C[C@@H]([C@@H](C)O)OC2=O)O[C@@H]1C [Fidaxomicin] | 3.7 | – | 1.0 | pKa [1]: 5.15; solubility at 72 h [3, 11]: 77 ± 1 µg/mL (≈ 72.8 µM); solubility at 72 h [3, 12]: 178 ± 2 µg/mL (≈ 168 µM); solubility at 72 h [3, 13]: 46 ± 1 µg/mL (≈ 43.5 µM); Pep,u ([6]; Fed): 0.092 10^-6 cm/s; kdiss ([7]; Fasted): 0.0002967 s⁻¹; Pep,u,μFLUX less in the fed condition than in the fasted condition ([7]; FeSSIF vs FaSSIF): about 40%; kdiss ([7]; Fed): 0.0007389 s⁻¹; Dn ([8]; Fasted): 3.7; Do ([8]; Fasted): 20; Pep ([8]; Fasted): 0.055 10^-6 cm/s; Pep' ([8]; Fasted): 0.55 10^-6 cm/s; Dn ([8]; Fed): 9.3; Do ([8]; Fed): 7.2; Pep ([8]; Fed): 0.024 10^-6 cm/s; Pep' ([8]; Fed): 0.24 10^-6 cm/s; fraction unbound [8]: 0.6
